Assays:
[1] = Lymphatic transport assay in mesenteric lymph-duct cannulated rats; assay type: in vivo, rat; conditions: total MPA related compound, intraduodenal infusion, anesthetised mesenteric lymph-duct cannulated rats; class symbols
Description: In order to assess the lymphatic transport of disclosed lipid prodrugs in rats, the mesenteric lymph ducts of the rats used in this study were cannulated to allow continual collection of mesenteric lymph. Lipid formulations containing the compound of interest were then administered to the animals, lymph was collected, and drug concentrations in the lymph samples were quantified.
Lipid-based formulations of the compounds of the invention or control compounds were prepared as previously described (Trevaskis, N. L. et al., Pharmaceutical Research, 2005, 22(11), 1863-1870, WO 2016/023082, and WO 2017/041139, hereby incorporated by reference.
In brief, either 1 or 2 mg of test prodrug, 40 mg oleic acid and 25 mg Tween 80 were mixed in a glass vial and incubated at 37° C. for 12-18 h to equilibrate. An aqueous phase consisting of 5.6 ml phosphate buffered saline (PBS, pH 7.4) was subsequently added to the lipid phase (MPA was dissolved in PBS for the preparation of MPA containing formulations) and the formulation emulsified by ultrasonication with a Misonix XL 2020 ultrasonic processor (Misonix, Farmingdale, NY, USA) equipped with a 3.2-mm microprobe tip running at 30% of the maximal amplitude of 240 μm and a frequency of 20 kHz for 2 min at room temperature. Doses for administering to more than one animal can be prepared in one batch by suitably increasing the quantities given above. Drug/prodrug concentrations in all formulations were verified using HPLC-MS.
Male Sprague-Dawley (SD) rats were selected for the lymphatic transport studies. Rats (typically 240-320 g) were maintained on a standard diet and fasted overnight with free access to water prior to experiments.
Anesthetized rats were placed on a heated pad at 37° C. and cannulas inserted into the duodenum (for formulation administration and rehydration), mesenteric lymph duct (for lymph collection), and carotid artery (in cases where blood collection was conducted). Post-surgery, rats were re-hydrated for 0.5 h via intraduodenal infusion of normal saline at 2.8 mL/h. The lipid formulations were infused into the duodenum at 2.8 mL/h for 2 h after which, normal saline was infused at 2.8 mL/h for the remainder of the experiment. Lymph was continuously collected for up to 8 h into pre-weighed Eppendorf tubes containing 10 μL of 1,000 IU/mL heparin. The collection tubes were changed hourly and lymph flow was measured gravimetrically. Aliquots of hourly lymph samples were stored at −20° C. prior to assay.
Drug concentration in lymph is expressed as total drug and includes free drug and drug associated with different glycerides. Lymph samples are first treated with a lipase or other appropriate conditions to liberate free active agent prior to measurement of active agent levels in the lymph. Treatment with a lipase or other hydrolysis conditions liberates free active agent from any corresponding re-esterified glycerides. Porcine pancreatic lipase is appropriate for this purpose. Alternatively, hydrolysis with 0.5 M NaOH may be used. For MPA “phenol” prodrugs (i.e. prodrugs linked to the triglyceride at the aromatic —OH group of MPA), hydrolysis was performed with 0.5 M NaOH except for the lymph samples collected from 3 rats in the group of compound I-20 (MPA-O-C12α′βMe-TG), which were hydrolyzed by porcine pancreatic lipase.
Transport of compounds into lymph during each hourly collection period was calculated from the product of the volume of lymph collected and the measured concentrations in lymph. For fluorescently-labelled compounds such as a BDP-conjugate, the concentrations of total compound may be measured by fluorescence spectroscopy without hydrolysis.
The results of the lymphatic transport assays are summarized in Table 2, below, and FIGS. 1-19. Table 2 summarizes lymphatic transport of total MPA related compound (% of administered dose) following intraduodenal infusion to anaesthetised, mesenteric lymph-duct cannulated rats. […]

[2] = In vitro release of MPA from prodrugs in plasma supplemented with lipoprotein lipase (LPL); assay type: in vitro ADME, rat; conditions: for Percentage MPA release at 60 min in LPL supplemented rat plasma: n = 3 unless specified otherwise; for monoglyceride (MG) peak: after 180 min, rat plasma supplemented with LPL
Description: The percentage of MPA released at 60 minutes in LPL-supplemented rat plasma was also determined for selected compounds. […] The designation “**” indicates a release % of >25% to 50%. The designation “***” indicates a release % of >50% to 75%. The designation “****” indicates a release % of >75%.
In order to probe the release of free drug from TG prodrugs in the systemic circulation, prodrugs were incubated with plasma (rat, mouse, dog, pig or human) supplemented with lipoprotein lipase (LPL, 200 IU/ml). LPL is a key enzyme required for the hydrolysis of lipoprotein associated TG in the systemic circulation and is therefore expected to be a key contributor to lipolysis of the re-esterified drug-TG construct in plasma, largely via liberation of fatty acids in the sn-1 and the sn-3 position of the TG-mimetic, prior to drug release from the 2′ position via esterase hydrolysis. LPL is […] is tethered to the luminal surface of vascular endothelial cells under physiological conditions. In the current in vitro studies, plasma was therefore supplemented with LPL to better reflect the in vivo situation. To start hydrolysis, 10 μl of LPL solution (10,000 IU/ml) was added to a mixture of 10 μl of prodrug solution (1 mg/ml dissolved in acetonitrile) and 500 μl of blank plasma. The mixture was incubated at 37° C. Samples (20 μl) of the incubation solution were taken at 0, 5, 15, 30, 60, 90, 120 and 180 minutes post-incubation and added to 180 μl of MeCN to stop lipolysis. The mixture was vortexed and centrifuged at 4500×g for 5 minutes to precipitate proteins prior to analysis. The supernatant was analyzed by HPLC-MS/MS for the potential products (MG form, acid form, and free drug) of prodrug hydrolysis.

[3] = Prodrug lymph node study in mice (free MPA in mesenteric and peripheral lymph nodes); assay type: in vivo, mouse; conditions: oral multiple dose study (2 times daily for 2 days, samples on 3rd day)
From the text: This experiment included a single and multiple dose study.

[4] = cited from earlier work

## CCCCCCCCCCCCCCCC(=O)OCC(COC(=O)CCCCCCCCCCCCCCC)OC(=O)CC(C)CCCCCCCC(C)C(=O)Oc1c(C/C=C(\C)CCC(=O)OC)c(OC)c(C)c2c1C(=O)OC2 (centres unmarked) [I-20]
[1]
  Cumulative lymphatic transport % dose (Mean ± SD, or Range if n = 2): A (greater than 10% (>10%))
[2]
  Percentage MPA release at 60 min in LPL supplemented rat plasma: *** (a release % of >50% to 75%)
  monoglyceride (MG) peak: almost completely disappeared

## CCCCCCCCCCCCCCCC(=O)OCC(COC(=O)CCCCCCCCCCCCCCC)OC(=O)CC(C)CCCCCCCC(C)C(=O)OCCCCC(=O)Oc1c(C/C=C(\C)CCC(=O)OC)c(OC)c(C)c2c1C(=O)OC2 (centres unmarked) [I-22, (E)-12-(1,3-Bis(palmitoyloxy)propan-2-yl) 1-(5-((6-methoxy-5-(6-methoxy-3-methyl-6-oxohex-2-en-1-yl)-7-methyl-3-oxo-1,3-dihydroisobenzofuran-4-yl)oxy)-5-oxopentyl) 2,10-dimethyldodecanedioate]
[1]
  Cumulative lymphatic transport % dose (Mean ± SD, or Range if n = 2): A (greater than 10% (>10%))
[2]
  Percentage MPA release at 60 min in LPL supplemented rat plasma: *** (a release % of >50% to 75%)
  monoglyceride (MG) peak: almost completely disappeared

## CCCCCCCCCCCCCCCC(=O)OCC(COC(=O)CCCCCCCCCCCCCCC)OC(=O)CC/C(C)=C/Cc1c(O)c2c(c(C)c1OC)COC2=O [I-34, MPA-2-TG]
[3]
  concentrations of free MPA in mesenteric lymph nodes compared with MPA: Much higher concentrations
[1]
  Cumulative lymphatic transport % dose (Mean ± SD, or Range if n = 2): A (greater than 10% (>10%))
[2]
  Percentage MPA release at 60 min in LPL supplemented rat plasma: *** (a release % of >50% to 75%)

## CCCCCCCCCCC(=O)O[C@H]1CC[C@H]2[C@@H]3CCC4=CC(=O)CC[C@]4(C)[C@H]3CC[C@]12C [testosterone undecanoate]
[4]
  bioavailability of testosterone after oral administration of the undecanoate ester: < 5%

## CCCCCCCCCCCCCCCC(=O)OCC(COC(=O)CCCCCCCCCCCCCCC)OC(=O)CCCCCCCCCOC(=O)CC/C(C)=C/Cc1c(O)c2c(c(C)c1OC)COC2=O [I-46]
[1]
  Cumulative lymphatic transport % dose (Mean ± SD, or Range if n = 2): A (greater than 10% (>10%))

## CCCCCCCCCCCCCCCC(=O)OCC(COC(=O)CCCCCCCCCCCCCCC)OC(=O)C(C)CCCCCCC(C)C(=O)Oc1c(C/C=C(\C)CCC(=O)OC)c(OC)c(C)c2c1C(=O)OC2 (centres unmarked) [I-61]
[1]
  Cumulative lymphatic transport % dose (Mean ± SD, or Range if n = 2): A (greater than 10% (>10%))

## CCCCCCCCCCCCCCCC(=O)OCC(COC(=O)CCCCCCCCCCCCCCC)OC(=O)CC(C)CCCCCCCC(C)C(=O)Oc1ccc(COc2c(C/C=C(\C)CCC(=O)OC)c(OC)c(C)c3c2C(=O)OC3)cc1 (centres unmarked) [I-54, (E)-12-(1,3-bis(palmitoyloxy)propan-2-yl) 1-(4-(((6-methoxy-5-(6-methoxy-3-methyl-6-oxohex-2-en-1-yl)-7-methyl-3-oxo-1,3-dihydroisobenzofuran-4-yl)oxy)methyl)phenyl) 2,10-dimethyldodecanedioate]
[1]
  Cumulative lymphatic transport % dose (Mean ± SD, or Range if n = 2): B (between 1% and 10% (1%-10%))

## CCCCCCCCCCCCCCCC(=O)OCC(COC(=O)CCCCCCCCCCCCCCC)OC(=O)CC(C)CCCC(=O)Oc1c(C/C=C(\C)CCC(=O)OC)c(OC)c(C)c2c1C(=O)OC2 (centres unmarked) [I-16, MPA-(O—C10bMe-2-TG)-OMe]
[1]
  Cumulative lymphatic transport % dose (Mean ± SD, or Range if n = 2): A (greater than 10% (>10%))

— US11938137B2, “Lipid prodrugs of mycophenolic acid and uses thereof” (PureTech LYT, Inc., priority 2017, dated 2024)
